Data published in PMC5515844, “A new Prenylated Flavonoid induces G0/G1 arrest and apoptosis through p38/JNK MAPK pathways in Human Hepatocellular Carcinoma cells” (Scientific Reports, 2017).
Read-outs that look alike come from different tables or passages of the source.

Key:
[1] = tested on: Hep3B; experiment: MTT cytotoxicity assay; type: cell-based, human; details: for IC50: Homo sapiens, 48 h, mean ± SD; for effect of inhibitor on the reduction of cell viability by daphnegiravone D: pretreated with 10 μM inhibitor 1 h, then 2 μM daphnegiravone D 48 h
Method: (§1) HepG2 and Hep3B (human hepatoma cells), Bcap37 and MCF-7 (human breast cancer cells), TE-1 (human esophageal cancer cells), A549 (human lung carcinoma cells), U251 and U87 (human glioma cells), were cultured in Dulbecco’s modified Eagle’s medium (DMEM) supplemented with 10% fetal bovine serum (FBS) and 1% penicillin/streptomycin (10000 U/mL penicillin, 10000 μg/ml streptomycin). SH-SY5Y (human neuroblastoma cells), LO2 (human normal liver cell) were grown in RPMI 1640 containing 10% FBS and 100 µg/ml penicillin, 100 µg/ml streptomycin. HepG2, Hep3B, MCF-7, TE-1, A549, U87, U251 and SHSY5Y cells were obtained from the American Type Culture Collection (Manassas, VA, USA). Bcap37 and LO2 cells were purchased from the Cell Bank of Chinese Academy of Sciences (Shanghai, China). All cells were incubated in a humidified atmosphere containing 5% CO2 at 37 °C.
(§2) Cells seeded in 96-well plates with 5 × 10^3 cells/well were adhered overnight and incubated with vehicle control (DMSO) or diverse concentrations of compounds for 48 h. After treatment, 20 μL of MTT (5 mg/mL) was added to each well and incubated for another 4 h at 37 °C. Then, 150 μL of DMSO/well was appended after removed the supernatant to dissolve the formed purple formazan crystals and the color absorbance was measured at 490 nm using a microplate reader (Molecular Devices, Thermo, CA, USA). The inhibition rate (%) was calculated as (A490(control) − A490(drug groups))/(A490(control) − A490(blank)) × 100 and the value of IC50 (the concentration that caused 50% inhibition of cell viability) was determined using SPSS 20.0. This experiment was measured in triplicate, independently.

[2] = tested on: HepG2; experiment: MTT cytotoxicity assay; type: cell-based, human; details: for IC50: Homo sapiens, HepG2, MTT, 48 h, mean ± SD; for effect of inhibitor on the reduction of cell viability by daphnegiravone D: HepG2, MTT, pretreated with 10 μM inhibitor 1 h, then 10 μM daphnegiravone D 48 h
Method: as §1, §2

[3] = tested on: A549; experiment: MTT cytotoxicity assay; type: cell-based; details: Homo sapiens, 48 h, mean ± SD
Method: as §1, §2

[4] = tested on: Bcap37; experiment: MTT cytotoxicity assay; type: cell-based; details: Homo sapiens, 48 h, mean ± SD
Method: as §1, §2

[5] = tested on: MCF-7; experiment: MTT cytotoxicity assay; type: cell-based; details: Homo sapiens, MCF7, 48 h, mean ± SD
Method: as §1, §2

[6] = tested on: SH-SY5Y; experiment: MTT cytotoxicity assay; type: cell-based; details: Homo sapiens, 48 h, mean ± SD
Method: as §1, §2

[7] = tested on: TE-1; experiment: MTT cytotoxicity assay; type: cell-based; details: Homo sapiens, 48 h, mean ± SD
Method: as §1, §2

[8] = tested on: U251; experiment: MTT cytotoxicity assay; type: cell-based; details: Homo sapiens, U-251, 48 h, mean ± SD
Method: as §1, §2

[9] = tested on: U87; experiment: MTT cytotoxicity assay; type: cell-based; details: Homo sapiens, U-87 MG, 48 h, mean ± SD
Method: as §1, §2

[10] = tested on: LO2; experiment: MTT cytotoxicity assay, normal hepatic cells; type: cell-based; details: Homo sapiens, L02, 48 h, mean ± SD
Method: as §1, §2

[11] = tested on: nine human cancer cell lines and one normal hepatic cell line; experiment: MTT cytotoxicity assay, summary over the cell line panel; type: cell-based
Method: as §1, §2

[12] = tested on: HepG2 cells; set-up: method as in PMID 25446044; details: cited from earlier work
[13] = most cancer cell lines, read-out: IC50 values against most cancer cell lines
[14] = most cell lines, read-out: IC50 values against most cell lines

Row | Compound | IC50 [1] [µM] | IC50 [2] [µM] | IC50 [3] [µM] | IC50 [4] [µM] | IC50 [5] [µM] | IC50 [6] [µM] | IC50 [7] [µM] | IC50 [8] [µM] | IC50 [9] [µM] | IC50 [10] [µM] | IC50 [11, 13] [µM] | IC50 [11, 14] [µM] | effect of inhibitor on the reduction of cell viability by daphnegiravone D [1] | effect of inhibitor on the reduction of cell viability by daphnegiravone D [2] | inhibitory effect on HepG2 cells [12]
1 | COc1c(-c2ccc(O)c(O)c2)oc2c(CC=C(C)C)c(O)c(CC=C(C)C)c(O)c2c1=O [Compound 2, broussoflavonol B] | 14.2 ± 1.56 | 26.1 ± 1.89 | 15 ± 1.21 | 42.4 ± 4.83 | 19.2 ± 1.76 | 13.5 ± 0.95 | 20 ± 2.3 | 19.8 ± 1.53 | 20.3 ± 2.08 | 22.4 ± 2.63 | ~20 |  |  |  | 
2 | CC(C)=CCc1c(-c2ccc(O)cc2O)oc2c3c(cc(O)c2c1=O)OC(C)(C)C=C3 [Compound 3, morusin] | 14.2 ± 1.87 | 9.76 ± 0.94 | 23.9 ± 1.97 | 31 ± 2.34 | 13.5 ± 2.51 | 45.4 ± 3.24 | 22.8 ± 1.79 | 17.1 ± 2.22 | 23.4 ± 2.79 | 28.2 ± 3.14 | ~20 |  |  |  | 
3 | COc1c(-c2cc(O)c3c(c2)C=CC(C)(C)O3)oc2c(CC=C(C)C)c(O)cc(O)c2c1=O [Compound 4, daphnegiravone A] | > 100 | 36.7 ± 2.21 | 66.8 ± 4.3 | > 100 | > 100 | 74.4 ± 4.87 | > 100 | > 100 | 71 ± 4.36 | > 100 |  | > 50 |  |  | 
4 | CC(C)=CCc1cc([C@@H]2CC(=O)c3ccc(O)cc3O2)c2c(c1O)OC(C)(C)CC2 [Compound 5, daphnegiravone C] | 55.4 ± 3.97 | > 100 | 20 ± 1.31 | > 100 | > 100 | 54.8 ± 3.72 | > 100 | > 100 | 49.9 ± 3.87 | > 100 |  | > 50 |  |  | 
5 | O=c1[nH]cc(F)c(=O)[nH]1 [Compound 5FU, 5-Fluorouracil, reference compound] | 10.4 ± 1.44 | 47.1 ± 3.68 | 31.9 ± 2.74 | 44.1 ± 3.82 | 42.3 ± 3.03 | 18.6 ± 1.38 | 26.7 ± 2.01 | 42.6 ± 3.49 | 20.2 ± 1.98 | 31.9 ± 3.78 |  |  |  |  | 
6 | C[S+]([O-])c1ccc(-c2nc(-c3ccncc3)c(-c3ccc(F)cc3)[nH]2)cc1 (centres unmarked) [SB203580, reference compound] |  |  |  |  |  |  |  |  |  |  |  |  | abolished | abolished | 
7 | Oc1c2ccccc2c2c3c(cccc13)N=N2 [SP600125, reference compound] |  |  |  |  |  |  |  |  |  |  |  |  | exacerbated | exacerbated | 
8 | Kurzphenol C |  |  |  |  |  |  |  |  |  |  |  |  |  |  | weak inhibitory effect
